Target: Polymerase acidic protein (Influenza A virus (strain A/Puerto Rico/8/1934 H1N1), UniProt P03433)
Assay: Inhibition of cap 1 ALMV primed Influenza transcriptase

Row | SMILES | IC50
1 | NC(=O)C(=O)CC(=O)C1CCCCC1 | > 500 µM
2 | O=C(O)C(=O)CS(=O)(=O)c1ccccc1 | > 500 µM
3 | O=C(O)C(=O)Cc1cc2ccccc2o1 | > 500 µM
4 | Cn1c(CC(=O)C(=O)O)nc2ccccc21 | > 500 µM
5 | O=C(O)C(=O)Cc1nc2ccccc2s1 | > 500 µM

Source: BindingDB's records for doi:10.1128/aac.38.12.2827 (Merck Research Laboratories, 1995)
